Laboratory results as given in PubChem BioAssay (NCI).
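Test compounds were applied to cells in 96-well plates for 48 hours at 5 doses. GI50 is the concentration that inhibits growth by half. TGI is the concentration that stops growth completely.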

How the values were obtained:
Experiment in all cases: growth of human tumour cells (NCI), 48 h
786-0 renal = test system: 786-0 renal
A498 renal = test system: A498 renal
A549 NSCLC = test system: A549 NSCLC
ACHN renal = test system: ACHN renal
BT-549 breast = test system: BT-549 breast
CAKI-1 renal = test system: CAKI-1 renal
CCRF-CEM leukemia = test system: CCRF-CEM leukemia
COLO 205 colon = test system: COLO 205 colon
DU-145 prostate = test system: DU-145 prostate
EKVX NSCLC = test system: EKVX NSCLC
HCC-2998 colon = test system: HCC-2998 colon
HCT-116 colon = test system: HCT-116 colon
HCT-15 colon = test system: HCT-15 colon
HL-60(TB) leukemia = test system: HL-60(TB) leukemia
HOP-62 NSCLC = test system: HOP-62 NSCLC
HOP-92 NSCLC = test system: HOP-92 NSCLC
HS 578T breast = test system: HS 578T breast
HT29 colon = test system: HT29 colon
IGROV1 ovarian = test system: IGROV1 ovarian
K-562 leukemia = test system: K-562 leukemia
KM12 colon = test system: KM12 colon
LOX IMVI melanoma = test system: LOX IMVI melanoma
M14 melanoma = test system: M14 melanoma
MALME-3M melanoma = test system: MALME-3M melanoma
MCF7 breast = test system: MCF7 breast
MDA-MB-231 breast = test system: MDA-MB-231 breast
MDA-MB-435 = test system: MDA-MB-435
MDA-MB-468 breast = test system: MDA-MB-468 breast
MOLT-4 leukemia = test system: MOLT-4 leukemia
NCI-H226 lung = test system: NCI-H226 lung
NCI-H23 lung = test system: NCI-H23 lung
NCI-H460 lung = test system: NCI-H460 lung
NCI-H522 lung = test system: NCI-H522 lung
NCI/ADR-RES ovarian = test system: NCI/ADR-RES ovarian
OVCAR-3 ovarian = test system: OVCAR-3 ovarian
OVCAR-4 ovarian = test system: OVCAR-4 ovarian
OVCAR-5 ovarian = test system: OVCAR-5 ovarian
OVCAR-8 ovarian = test system: OVCAR-8 ovarian
PC-3 prostate = test system: PC-3 prostate
RPMI-8226 leukemia = test system: RPMI-8226 leukemia
RXF 393 renal = test system: RXF 393 renal
SF-268 CNS = test system: SF-268 CNS
SF-295 CNS = test system: SF-295 CNS
SF-539 CNS = test system: SF-539 CNS
SK-MEL-2 melanoma = test system: SK-MEL-2 melanoma
SK-MEL-28 melanoma = test system: SK-MEL-28 melanoma
SK-MEL-5 melanoma = test system: SK-MEL-5 melanoma
SK-OV-3 ovarian = test system: SK-OV-3 ovarian
SN12C renal = test system: SN12C renal
SNB-19 CNS = test system: SNB-19 CNS
SNB-75 CNS = test system: SNB-75 CNS
SR leukemia = test system: SR leukemia
SW-620 colon = test system: SW-620 colon
T-47D breast = test system: T-47D breast
TK-10 renal = test system: TK-10 renal
U251 CNS = test system: U251 CNS
UACC-257 melanoma = test system: UACC-257 melanoma
UACC-62 melanoma = test system: UACC-62 melanoma
UO-31 renal = test system: UO-31 renal

For `O=c1cc(-c2ccccc2)oc2cc(OCCCC[P+](c3ccccc3)(c3ccccc3)c3ccccc3)cc(O)c12`, which GI50 (786-0 renal) is on record?
The GI50 was 1860 nM.

And the TGI (786-0 renal)?
Its TGI is 3.84 µM.

And the GI50 (A498 renal)?
Its GI50 is 2030 nM.

And the TGI (A498 renal)?
The TGI was 5.59 µM.

And the GI50 (A549 NSCLC)?
Its GI50 is 2820 nM.

And the TGI (A549 NSCLC)?
Its TGI is 16.5 µM.

And the GI50 (ACHN renal)?
The GI50 was 996 nM.

What about the TGI (ACHN renal) of the same molecule?
The TGI was 2390 nM.

And the GI50 (BT-549 breast)?
The GI50 was 542 nM.

And the TGI (BT-549 breast)?
Its TGI is 1740 nM.

And the GI50 (CAKI-1 renal)?
The GI50 was 1630 nM.

What about the TGI (CAKI-1 renal) of the same molecule?
The TGI was 4.34 µM.

And the GI50 (CCRF-CEM leukemia)?
Its GI50 is 826 nM.

And the TGI (CCRF-CEM leukemia)?
The TGI was 4.75 µM.

And the GI50 (COLO 205 colon)?
Its GI50 is 1470 nM.

And the TGI (COLO 205 colon)?
The TGI was 3.01 µM.

What about the GI50 (DU-145 prostate) of the same molecule?
The GI50 was 813 nM.

What about the TGI (DU-145 prostate) of the same molecule?
Its TGI is 2970 nM.

What about the GI50 (EKVX NSCLC) of the same molecule?
Its GI50 is 494 nM.

What about the TGI (EKVX NSCLC) of the same molecule?
The TGI was 1860 nM.

What about the GI50 (HCC-2998 colon) of the same molecule?
Its GI50 is 412 nM.

What about the TGI (HCC-2998 colon) of the same molecule?
Its TGI is 1540 nM.

What about the GI50 (HCT-116 colon) of the same molecule?
The GI50 was 863 nM.

What about the TGI (HCT-116 colon) of the same molecule?
The TGI was 2120 nM.

And the GI50 (HCT-15 colon)?
Its GI50 is 1020 nM.

And the TGI (HCT-15 colon)?
Its TGI is 2480 nM.

And the GI50 (HL-60(TB) leukemia)?
The GI50 was 246 nM.

What about the TGI (HL-60(TB) leukemia) of the same molecule?
The TGI was 1820 nM.

What about the GI50 (HOP-62 NSCLC) of the same molecule?
The GI50 was 1420 nM.

What about the TGI (HOP-62 NSCLC) of the same molecule?
The TGI was 2870 nM.

And the GI50 (HOP-92 NSCLC)?
Its GI50 is 292 nM.

What about the TGI (HOP-92 NSCLC) of the same molecule?
Its TGI is 1130 nM.

What about the GI50 (HS 578T breast) of the same molecule?
Its GI50 is 1320 nM.

And the TGI (HS 578T breast)?
The TGI was 4.27 µM.

And the GI50 (HT29 colon)?
The GI50 was 2600 nM.

And the TGI (HT29 colon)?
The TGI was 11.3 µM.

And the GI50 (IGROV1 ovarian)?
Its GI50 is 785 nM.

What about the TGI (IGROV1 ovarian) of the same molecule?
Its TGI is 2360 nM.

What about the GI50 (K-562 leukemia) of the same molecule?
Its GI50 is 326 nM.

And the TGI (K-562 leukemia)?
The TGI was over 100 µM.

What about the GI50 (KM12 colon) of the same molecule?
The GI50 was 738 nM.

What about the TGI (KM12 colon) of the same molecule?
Its TGI is 2130 nM.

What about the GI50 (LOX IMVI melanoma) of the same molecule?
The GI50 was 1130 nM.

And the TGI (LOX IMVI melanoma)?
The TGI was 2360 nM.

What about the GI50 (M14 melanoma) of the same molecule?
The GI50 was 408 nM.

And the TGI (M14 melanoma)?
Its TGI is 1540 nM.

And the GI50 (MALME-3M melanoma)?
The GI50 was 397 nM.

And the TGI (MALME-3M melanoma)?
The TGI was 1190 nM.

What about the GI50 (MCF7 breast) of the same molecule?
Its GI50 is 499 nM.

What about the TGI (MCF7 breast) of the same molecule?
The TGI was 2280 nM.

What about the GI50 (MDA-MB-231 breast) of the same molecule?
Its GI50 is 1070 nM.

What about the TGI (MDA-MB-231 breast) of the same molecule?
Its TGI is 2570 nM.

And the GI50 (MDA-MB-435)?
The GI50 was 356 nM.

And the TGI (MDA-MB-435)?
Its TGI is 1390 nM.

And the GI50 (MDA-MB-468 breast)?
Its GI50 is 148 nM.

And the TGI (MDA-MB-468 breast)?
The TGI was 433 nM.

And the GI50 (MOLT-4 leukemia)?
Its GI50 is 771 nM.

What about the TGI (MOLT-4 leukemia) of the same molecule?
The TGI was 3.24 µM.

And the GI50 (NCI-H226 lung)?
Its GI50 is 1500 nM.

What about the TGI (NCI-H226 lung) of the same molecule?
Its TGI is 4.2 µM.

What about the GI50 (NCI-H23 lung) of the same molecule?
The GI50 was 1100 nM.

And the TGI (NCI-H23 lung)?
Its TGI is 2740 nM.

And the GI50 (NCI-H460 lung)?
The GI50 was 509 nM.

And the TGI (NCI-H460 lung)?
The TGI was 1810 nM.

And the GI50 (NCI-H522 lung)?
Its GI50 is 789 nM.

What about the TGI (NCI-H522 lung) of the same molecule?
The TGI was 2540 nM.

What about the GI50 (NCI/ADR-RES ovarian) of the same molecule?
Its GI50 is 3.29 µM.

What about the TGI (NCI/ADR-RES ovarian) of the same molecule?
The TGI was over 100 µM.

What about the GI50 (OVCAR-3 ovarian) of the same molecule?
The GI50 was 526 nM.

And the TGI (OVCAR-3 ovarian)?
Its TGI is 2220 nM.

What about the GI50 (OVCAR-4 ovarian) of the same molecule?
Its GI50 is 549 nM.

What about the TGI (OVCAR-4 ovarian) of the same molecule?
Its TGI is 6.76 µM.

What about the GI50 (OVCAR-5 ovarian) of the same molecule?
Its GI50 is 1580 nM.

And the TGI (OVCAR-5 ovarian)?
Its TGI is 5.11 µM.

And the GI50 (OVCAR-8 ovarian)?
The GI50 was 1040 nM.

What about the TGI (OVCAR-8 ovarian) of the same molecule?
The TGI was 6.1 µM.

What about the GI50 (PC-3 prostate) of the same molecule?
Its GI50 is 899 nM.

What about the TGI (PC-3 prostate) of the same molecule?
Its TGI is 2700 nM.

And the GI50 (RPMI-8226 leukemia)?
Its GI50 is 303 nM.

And the TGI (RPMI-8226 leukemia)?
The TGI was 1820 nM.

What about the GI50 (RXF 393 renal) of the same molecule?
The GI50 was 707 nM.

And the TGI (RXF 393 renal)?
The TGI was 2150 nM.

What about the GI50 (SF-268 CNS) of the same molecule?
Its GI50 is 1290 nM.

And the TGI (SF-268 CNS)?
Its TGI is 3.56 µM.

What about the GI50 (SF-295 CNS) of the same molecule?
Its GI50 is 1410 nM.

What about the TGI (SF-295 CNS) of the same molecule?
Its TGI is 2760 nM.

And the GI50 (SF-539 CNS)?
Its GI50 is 892 nM.

What about the TGI (SF-539 CNS) of the same molecule?
The TGI was 2150 nM.

And the GI50 (SK-MEL-2 melanoma)?
Its GI50 is 238 nM.

And the TGI (SK-MEL-2 melanoma)?
Its TGI is 603 nM.

And the GI50 (SK-MEL-28 melanoma)?
The GI50 was 601 nM.

What about the TGI (SK-MEL-28 melanoma) of the same molecule?
The TGI was 1830 nM.

And the GI50 (SK-MEL-5 melanoma)?
Its GI50 is 276 nM.

What about the TGI (SK-MEL-5 melanoma) of the same molecule?
The TGI was 693 nM.

And the GI50 (SK-OV-3 ovarian)?
The GI50 was 728 nM.

What about the TGI (SK-OV-3 ovarian) of the same molecule?
The TGI was 1920 nM.

What about the GI50 (SN12C renal) of the same molecule?
Its GI50 is 603 nM.

And the TGI (SN12C renal)?
The TGI was 1660 nM.

And the GI50 (SNB-19 CNS)?
The GI50 was 410 nM.

And the TGI (SNB-19 CNS)?
Its TGI is 1420 nM.

And the GI50 (SNB-75 CNS)?
The GI50 was 419 nM.

What about the TGI (SNB-75 CNS) of the same molecule?
The TGI was 1680 nM.

And the GI50 (SR leukemia)?
Its GI50 is 834 nM.

And the TGI (SR leukemia)?
Its TGI is over 100 µM.

And the GI50 (SW-620 colon)?
Its GI50 is 997 nM.

And the TGI (SW-620 colon)?
Its TGI is 2670 nM.

What about the GI50 (T-47D breast) of the same molecule?
Its GI50 is 273 nM.

What about the TGI (T-47D breast) of the same molecule?
The TGI was 2770 nM.

And the GI50 (TK-10 renal)?
The GI50 was 903 nM.

What about the TGI (TK-10 renal) of the same molecule?
The TGI was 3.27 µM.

What about the GI50 (U251 CNS) of the same molecule?
Its GI50 is 716 nM.

What about the TGI (U251 CNS) of the same molecule?
The TGI was 2160 nM.

What about the GI50 (UACC-257 melanoma) of the same molecule?
The GI50 was 548 nM.

What about the TGI (UACC-257 melanoma) of the same molecule?
The TGI was 1900 nM.

And the GI50 (UACC-62 melanoma)?
Its GI50 is 573 nM.

What about the TGI (UACC-62 melanoma) of the same molecule?
Its TGI is 1560 nM.

What about the GI50 (UO-31 renal) of the same molecule?
Its GI50 is 1390 nM.

What about the TGI (UO-31 renal) of the same molecule?
The TGI was 2890 nM.
